What was measured:
[1] = test system: ovalbumin sensitized female Balb/C mice; test: Ovalbumin induced inflammation in ovalbumin sensitized mice (Compound 52 and prednisolone), BAL cell counts; assay type: in vivo; conditions: 1 mg/Kg p.o. (combination: 1 mg/Kg of each compound); BAL 24 hours after ovalbumin challenge
Experimental: Sensitized mice were randomly assigned to different treatment groups. […] Animals were administered Compound 52 orally 24 hrs before first ovalbumin challenge and 2 hrs before ovalbumin challenge from Day-11 to 13. Animals were administered Prednisolone orally 24 hrs before first ovalbumin challenge and 2 hrs before ovalbumin challenge from Day-11 to 13. The animals were divided into groups as per Table 2.
Broncho Alveolar Lavage (BAL) was performed at 24 hours after challenge with ovalbumin. Animals were anesthetized with an overdose of urethane, trachea was exposed and BAL was performed 4 times using 0.3 mL PBS. All aspirates of BAL were pooled and total number of cells determined using a hemocytometer. The BAL was centrifuged, and the cell pellet was used for preparation of smears. Slides were stained with Giemsa stain and a differential cell count of 500 cells based on standard morphology was performed manually.
Calculations: The total number of eosinophils in each BAL sample was calculated using the formula: […]
Percent inhibition of eosinophils was calculated using the following formula: […]

human TRPA1 receptor = molecular target: T1, human TRPA1 receptor (Homo sapiens, UniProt O75762); test: Inhibition of AITC induced cellular uptake of radioactive calcium in human TRPA1 expressing CHO cells; assay type: cell-based; conditions: read-out: hTRPA1 IC50 values
T1 construct: expressed in transfected cells; host or cells: CHO cells
Experimental: Test compound solution is prepared in a suitable solvent. Human TRPA1 expressing CHO cells are grown in suitable medium. Cells are treated with test compounds followed by addition of AITC. Cells are washed, lysed and the radioactivity in the lysate is measured in Packard Top count after addition of liquid scintillant.
The concentration response curves for compounds are plotted as a % of maximal response obtained in the absence of test antagonist, and the IC50 values are calculated from such concentration response curve by nonlinear regression analysis using GraphPad PRISM software.

T1 sequence (O75762 whole entry): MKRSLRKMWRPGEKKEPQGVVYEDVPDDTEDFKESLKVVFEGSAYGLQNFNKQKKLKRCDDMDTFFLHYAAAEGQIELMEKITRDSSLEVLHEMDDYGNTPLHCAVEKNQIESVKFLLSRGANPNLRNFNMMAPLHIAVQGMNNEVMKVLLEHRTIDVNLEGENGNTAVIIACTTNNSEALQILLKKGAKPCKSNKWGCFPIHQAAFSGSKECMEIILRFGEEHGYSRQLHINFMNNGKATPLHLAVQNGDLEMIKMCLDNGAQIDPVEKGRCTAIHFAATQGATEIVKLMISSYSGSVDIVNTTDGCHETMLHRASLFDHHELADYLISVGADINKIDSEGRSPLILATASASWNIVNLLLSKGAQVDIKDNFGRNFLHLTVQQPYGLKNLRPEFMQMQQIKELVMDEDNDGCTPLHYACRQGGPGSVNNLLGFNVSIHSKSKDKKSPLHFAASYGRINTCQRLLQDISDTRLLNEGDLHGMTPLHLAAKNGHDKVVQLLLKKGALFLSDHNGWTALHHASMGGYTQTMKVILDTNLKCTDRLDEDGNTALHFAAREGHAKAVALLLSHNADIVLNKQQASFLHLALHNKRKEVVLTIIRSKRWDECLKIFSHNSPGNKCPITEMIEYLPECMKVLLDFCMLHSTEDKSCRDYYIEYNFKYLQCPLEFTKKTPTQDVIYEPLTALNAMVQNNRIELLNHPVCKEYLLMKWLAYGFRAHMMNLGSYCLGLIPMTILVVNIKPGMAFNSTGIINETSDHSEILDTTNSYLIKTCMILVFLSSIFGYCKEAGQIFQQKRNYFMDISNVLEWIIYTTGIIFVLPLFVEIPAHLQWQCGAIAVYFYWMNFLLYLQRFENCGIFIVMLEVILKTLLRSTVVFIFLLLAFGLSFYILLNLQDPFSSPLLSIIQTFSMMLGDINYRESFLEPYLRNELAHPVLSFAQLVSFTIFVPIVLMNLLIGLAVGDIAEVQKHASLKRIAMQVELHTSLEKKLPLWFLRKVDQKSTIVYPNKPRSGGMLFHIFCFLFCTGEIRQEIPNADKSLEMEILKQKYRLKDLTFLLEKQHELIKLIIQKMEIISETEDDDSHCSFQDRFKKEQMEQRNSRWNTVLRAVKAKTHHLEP

Structure (SMILES)	% Inhibition of cell in BALf [1] [%]	% Inhibition of eosinophils in BALf [1] [%]	Total cell number in BALf [1]	Total eosinophils in BALf [1]	IC50 (human TRPA1 receptor) [µM]
Cn1c(=O)c2c(CC(=O)Nc3nc(-c4ccc(F)c(C(F)(F)F)c4F)cs3)csc2n(C)c1=O [Compound 52]	10	21	12.2 ± 0.5	5.8 ± 0.5	
CC(C)C(N)C(=O)OCn1c(-c2ccc(F)c(C(F)(F)F)c2F)csc1=NC(=O)Cc1csc2c1c(=O)n(C)c(=O)n2C (stereo not drawn) [Compound 97]					0.0219
C[C@]12C=CC(=O)C=C1CC[C@@H]1[C@@H]2[C@@H](O)C[C@@]2(C)[C@H]1CC[C@]2(O)C(=O)CO [Prednisolone, reference compound]	21	24	10.8 ± 1.0	5.6 ± 0.7	

Source: patent publication US20160158236A1, “PHARMACEUTICAL COMPOSITION COMPRISING A TRPA1 ANTAGONIST AND A STEROID” (GLENMARK PHARMACEUTICALS S.A., priority 2011, published 2016)
